Data: patent US4826531A (priority 1986, dated 1989)

Legend:
PH[…] (TOMATO) = assay type: in vivo, Phytophthora infestans; details: for disease control grading, PH[…] (TOMATO): 100 ppm foliar spray plus root drench ca. 40 ppm a.i./dry soil, 1-2 days before inoculation
[…] (VINE) = foliar fungal disease control test (Table III); assay type: in vivo, Plasmopara viticola; details: 100 ppm foliar spray plus root drench ca. 40 ppm a.i./dry soil; 1-2 days before inoculation
Experimental: (§1) The compounds were tested against a variety of foliar fungal diseases of plants. The technique employed was as follows.
(§2) The plants were grown in John Innes Potting Compost (No 1 or 2) in 4 cm diameter minipots. The test compounds were formulated either by bead milling with aqueous Dispersol T or as a solution in acetone or acetone/ethanol which was diluted to the required concentration immediately before use. For the foliage diseases, the formulations (100 ppm active ingredient) were sprayed on to the foliage and applied to the roots of the plants in the soil. The sprays were applied to maximum retention and the root drenches to a final concentration equivalent to approximately 40 ppm a.i./dry soil. Tween 20, to give a final concentration of 0.05%, was added when the sprays were applied to cereals.
(§3) For most of the tests the compound was applied to the soil (roots) and to the foliage (by spraying) one or two days before the plant was inoculated with the disease. An exception was the test on Erysiphe graminis in which the plants were inoculated 24 hours before treatment. Foliar pathogens were applied by spray as spore suspensions onto the leaves of test plants. After inoculation, the plants were put into an appropriate environment to allow infection to proceed and then incubated until the disease was ready for assessment. The period between inoculation and assessment varied from four to fourteen days according to the disease and environment.
(§4) The disease control was recorded by the following grading: […]

[1] = tested on: PUCCINIA RECONDITA (WHEAT); assay: foliar fungal disease control test (Table III); assay type: in vivo; details: 100 ppm foliar spray plus root drench ca. 40 ppm a.i./dry soil; 1-2 days before inoculation
Experimental: as §1, §2, §3, §4

[2] = tested on: ERYSIPHE GRAMINIS (BARLEY); assay: foliar fungal disease control test (Table III); assay type: in vivo; details: 100 ppm foliar spray plus root drench ca. 40 ppm a.i./dry soil; inoculated 24 hours before treatment
Experimental: as §1, §2, §3, §4

[3] = tested on: CERCOSPORA ARACHIDICOLA (PEANUT); assay: foliar fungal disease control test (Table III); assay type: in vivo; details: 100 ppm foliar spray plus root drench ca. 40 ppm a.i./dry soil; 1-2 days before inoculation
Experimental: as §1, §2, §3, §4

[4] = tested on: VENTURIA INAEQUALS (APPLE); assay: foliar fungal disease control test (Table III); assay type: in vivo, Venturia inaequalis; details: 100 ppm foliar spray plus root drench ca. 40 ppm a.i./dry soil; 1-2 days before inoculation
Experimental: as §1, §2, §3, §4

[…] (RICE) = assay type: in vivo, Pyricularia oryzae; details: 100 ppm foliar spray plus root drench ca. 40 ppm a.i./dry soil; 1-2 days before inoculation
[5] = tested on: Meloidogyne incognita (tomato root-knot eelworm larvae); assay: nematocidal activity
Tomato = assay: whole plant screen for plant growth regulating activity; assay type: in vivo, Tomato (Ailsa Craig); details: 4000 ppm (4 kg/ha), assessed after 2-6 weeks
Experimental: These compounds were tested on a whole plant screen for plant growth regulating activity against six species of plant. The plant species used in this screen are presented in Table IV with the leaf stage at which they were sprayed.
A formulation of each chemical was applied at 4000 ppm (4 kg/ha in a 1000 l/ha field volume) using a tracksprayer and a SS8004E (Teejet) nozzle. Additional tests were done on tomatoes at 2000 and 500 ppm.
After spraying, the plants were grown in a glasshouse with 25° C. day/22° C. night temperatures. The exceptions to this were the temperate cereals wheat and barley, which were grown in 13°-16° C. day/11°-13° C. night temperatures. Supplementary lighting was supplied when necessary to provide an average photoperiod of 16 hours (14 hours minimum).
After 2-6 weeks in the glasshouse, depending on species and time of year, the plants were visually asessed for morphological characteristics against a control plant sprayed with a blank formulation.

With `CO/C=C(/C(=O)OC)c1ncccc1Oc1ccccc1` [Compound 1, (E)-methyl 2-(3'-phenoxypyrid-2'-yl)-3-methoxyacrylate] the “disease control grading, PH[…] (TOMATO)” value (PH[…] (TOMATO)) was 0 (60-100% of disease on untreated plants), the “disease control grading, […] (VINE)” value ([…] (VINE)) was 0 (60-100% of disease on untreated plants) and the “disease control grading, PUCCINIA RECONDITA (WHEAT)” value (from here on “disease control grading … (WHEAT)”) [1] was 0 (60-100% of disease on untreated plants). For the same compound, the “disease control grading, ERYSIPHE GRAMINIS (BARLEY)” value (“disease control grading … (BARLEY)” for short) [2] was 3 (trace-5% of disease on untreated plants), the “disease control grading, CERCOSPORA ARACHIDICOLA (PEANUT)” value (shortened to “disease control grading … (PEANUT)”) [3] was 4 and the “disease control grading, VENTURIA INAEQUALS (APPLE)” value (from here on “disease control grading … (APPLE)”) [4] was 3 (trace-5% of disease on untreated plants). The “disease control grading, […] (RICE)” value ([…] (RICE)) was 0 (60-100% of disease on untreated plants).
For `CO/C=C(/C(=O)OC)c1cccnc1Oc1ccccc1` [Compound 15, (E)-methyl-2-(2'-phenoxypyrid-3'-yl)-3-methoxyacrylate], the “disease control grading, PH[…] (TOMATO), root drench only” value (PH[…] (TOMATO); 100 ppm root drench only) was 4, the “activity against Meloidogyne incognita” value [5] was “active” and the “disease control grading, […] (VINE)” value ([…] (VINE)) was 4. The “disease control grading … (WHEAT)” value [1] was 4, the “disease control grading … (BARLEY)” value [2] was 4 and the “disease control grading … (PEANUT)” value [3] was 4. For the same compound, the “disease control grading … (APPLE)” value [4] was 4 and the “disease control grading, […] (RICE)” value ([…] (RICE)) was 4.
With `CO/C=C(/C(=O)OC)c1cccnc1Oc1ccc(Cl)cc1` [Compound 16] the “disease control grading, PH[…] (TOMATO)” value (PH[…] (TOMATO)) was 3 (trace-5% of disease on untreated plants), the “disease control grading, […] (VINE)” value ([…] (VINE)) was 4 and the “disease control grading … (WHEAT)” value [1] was 4. The “disease control grading … (BARLEY)” value [2] was 4, the “disease control grading … (PEANUT)” value [3] was 4 and the “disease control grading … (APPLE)” value [4] was 4. The “disease control grading, […] (RICE)” value ([…] (RICE)) was 4.
For `CO/C=C(/C(=O)OC)c1cccnc1Oc1ccc(Br)cc1` [Compound 18], the “disease control grading, PH[…] (TOMATO)” value (PH[…] (TOMATO)) was 0 (60-100% of disease on untreated plants), the “disease control grading, […] (VINE)” value ([…] (VINE)) was 4 and the “disease control grading … (WHEAT)” value [1] was 1 (26-59% of disease on untreated plants). The “disease control grading … (BARLEY)” value [2] was 4, the “disease control grading … (PEANUT)” value [3] was 4 and the “disease control grading … (APPLE)” value [4] was 4. The “disease control grading, […] (RICE)” value ([…] (RICE)) was 0 (60-100% of disease on untreated plants).
With `CO/C=C(/C(=O)OC)c1cccnc1Oc1ccc(C)cc1` [Compound 19] the “disease control grading, PH[…] (TOMATO)” value (PH[…] (TOMATO)) was 0 (60-100% of disease on untreated plants), the “disease control grading, […] (VINE)” value ([…] (VINE)) was 4 and the “disease control grading … (WHEAT)” value [1] was 4. The “disease control grading … (BARLEY)” value [2] was 4, the “disease control grading … (PEANUT)” value [3] was 4 and the “disease control grading … (APPLE)” value [4] was 4. The “plant growth regulating effect, TO” value (Tomato) was 2GAT and the “disease control grading, […] (RICE)” value ([…] (RICE)) was 4.
In the case of `CO/C=C(/C(=O)OC)c1cccnc1Oc1ccc(OC)cc1` [Compound 20], the “disease control grading, PH[…] (TOMATO)” value (PH[…] (TOMATO)) is reported as 0 (60-100% of disease on untreated plants), the “disease control grading, […] (VINE)” value ([…] (VINE)) is reported as 4 and the “disease control grading … (WHEAT)” value [1] is reported as 4. The “disease control grading … (BARLEY)” value [2] was 4, the “disease control grading … (PEANUT)” value [3] was 4 and the “disease control grading … (APPLE)” value [4] was 4. The “disease control grading, […] (RICE)” value ([…] (RICE)) was 4.
With `CO/C=C(/C(=O)OC)c1cccnc1Oc1ccc(C(F)(F)F)cc1` [Compound 21] the “disease control grading, PH[…] (TOMATO)” value (PH[…] (TOMATO)) was 3 (trace-5% of disease on untreated plants), the “disease control grading, […] (VINE)” value ([…] (VINE)) was 4 and the “disease control grading … (WHEAT)” value [1] was 4. The “disease control grading … (BARLEY)” value [2] was 4, the “disease control grading … (PEANUT)” value [3] was 4 and the “disease control grading … (APPLE)” value [4] was 4. The “disease control grading, […] (RICE)” value ([…] (RICE)) was 0 (60-100% of disease on untreated plants).
For `CO/C=C(/C(=O)OC)c1cccnc1Oc1cccc(F)c1` [Compound 57], the “disease control grading, PH[…] (TOMATO)” value (PH[…] (TOMATO)) was 3 (trace-5% of disease on untreated plants), the “disease control grading, […] (VINE)” value ([…] (VINE)) was 4 and the “disease control grading … (WHEAT)” value [1] was 4. The “disease control grading … (BARLEY)” value [2] was 4, the “disease control grading … (PEANUT)” value [3] was 4 and the “disease control grading … (APPLE)” value [4] was 4. The “disease control grading, […] (RICE)” value ([…] (RICE)) was 4.
With `CO/C=C(/C(=O)OC)c1cccnc1Oc1cccc(C)c1` [Compound 58] the “disease control grading, PH[…] (TOMATO)” value (PH[…] (TOMATO)) was 3 (trace-5% of disease on untreated plants), the “disease control grading, […] (VINE)” value ([…] (VINE)) was 4 and the “disease control grading … (WHEAT)” value [1] was 4. For the same compound, the “disease control grading … (BARLEY)” value [2] was 4, the “disease control grading … (PEANUT)” value [3] was 4 and the “disease control grading … (APPLE)” value [4] was 4. The “disease control grading, […] (RICE)” value ([…] (RICE)) was 4.
For `CO/C=C(/C(=O)OC)c1cccnc1Oc1cc(Cl)cc(Cl)c1` [Compound 60], the “disease control grading, PH[…] (TOMATO)” value (PH[…] (TOMATO)) was 4, the “disease control grading, […] (VINE)” value ([…] (VINE)) was 4 and the “disease control grading … (WHEAT)” value [1] was 4. The “disease control grading … (BARLEY)” value [2] was 4, the “disease control grading … (PEANUT)” value [3] was 4 and the “disease control grading … (APPLE)” value [4] was 4. The “disease control grading, […] (RICE)” value ([…] (RICE)) was 4.
For `CO/C=C(/C(=O)OC)c1cccnc1OCc1ccccc1` [Compound 66], the “disease control grading, PH[…] (TOMATO)” value (PH[…] (TOMATO)) was 0 (60-100% of disease on untreated plants), the “disease control grading, […] (VINE)” value ([…] (VINE)) was 2 (6-25% of disease on untreated plants) and the “disease control grading … (WHEAT)” value [1] was 0 (60-100% of disease on untreated plants). The “disease control grading … (BARLEY)” value [2] was 4, the “disease control grading … (PEANUT)” value [3] was 1 (26-59% of disease on untreated plants) and the “disease control grading … (APPLE)” value [4] was 4. For the same compound, the “disease control grading, […] (RICE)” value ([…] (RICE)) was 0 (60-100% of disease on untreated plants).
In the case of `CO/C=C(/C(=O)OC)c1cccnc1Oc1ccc(F)cc1F` [Compound 87], the “disease control grading, PH[…] (TOMATO)” value (PH[…] (TOMATO)) is reported as 0 (60-100% of disease on untreated plants), the “disease control grading, […] (VINE)” value ([…] (VINE)) is reported as 0 (60-100% of disease on untreated plants) and the “disease control grading … (WHEAT)” value [1] is reported as 3 (trace-5% of disease on untreated plants). For the same compound, the “disease control grading … (BARLEY)” value [2] was 4, the “disease control grading … (PEANUT)” value [3] was 4 and the “disease control grading … (APPLE)” value [4] was 4. The “disease control grading, […] (RICE)” value ([…] (RICE)) was 4.
`CO/C=C(/C(=O)OC)c1cccnc1Oc1cc(F)cc(F)c1` [Compound 88] was tested, and the “disease control grading, PH[…] (TOMATO)” value (PH[…] (TOMATO)) was 4, the “disease control grading, […] (VINE)” value ([…] (VINE)) was 4 and the “disease control grading … (WHEAT)” value [1] was 4. The “disease control grading … (BARLEY)” value [2] was 4, the “disease control grading … (PEANUT)” value [3] was 3 (trace-5% of disease on untreated plants) and the “disease control grading … (APPLE)” value [4] was 4. The “disease control grading, […] (RICE)” value ([…] (RICE)) was 2 (6-25% of disease on untreated plants).
With `CO/C=C(/C(=O)OC)c1ccccn1` [Compound 106] the “disease control grading, […] (VINE)” value ([…] (VINE)) was 0 (60-100% of disease on untreated plants), the “disease control grading … (WHEAT)” value [1] was 0 (60-100% of disease on untreated plants) and the “disease control grading … (BARLEY)” value [2] was 4. The “disease control grading … (PEANUT)” value [3] was 0 (60-100% of disease on untreated plants), the “disease control grading … (APPLE)” value [4] was 0 (60-100% of disease on untreated plants) and the “disease control grading, […] (RICE)” value ([…] (RICE)) was 0 (60-100% of disease on untreated plants).
